Test results from US20240199542A1, “SUBSTITUTED PYRROLIDIN-2-ONES, SALTS THEREOF AND THEIR USE AS HERBICIDALLY ACTIVE SUBSTANCES” (Bayer Aktiengesellschaft, priority 2021, published 2024).

How the values were obtained:
Type in all cases: in vivo
[1] = tested on: Alopecurus myosuroides (ALOMY); experiment: Herbicidal pre-emergence action; settings: 1280 g/ha, graded after ca. 3 weeks
From the text: (§1) Seeds of mono- and dicotyledonous weed plants and crop plants were sown, in plastic or organic planting pots, in sandy loam and covered with soil. The compounds according to the invention, formulated in the form of wettable powders (WP) or as emulsifiable concentrates (EC), were applied to the surface of the covering soil as aqueous suspension or emulsion, with the addition of 0.5% of an additive, at an application rate of 600 1 of water/ha (converted).
(§2) Following treatment, the pots were placed in a greenhouse and kept under optimum growth conditions for the test plants. The visual grading of the damage to the test plants was carried out after ca. 3 weeks in comparison to untreated controls (herbicidal effect in percent (%): 100% effect=plants have died off, 0% effect=as control plants).
(§3) Tables A1 to A16, below, show the effects of selected compounds of the general formula (I) according to table 1 on various harmful plants and an application rate corresponding to 1280 g/ha or lower obtained by the experimental procedure mentioned above.

Avena fatua (AVEFA) [2] = experiment: Herbicidal pre-emergence action; settings: graded after ca. 3 weeks
From the text: as §1, §2, §3

[3] = tested on: Echinochloa crus-galli (ECHCG); experiment: Herbicidal post-emergence action; settings: 1280 g/ha, assessed after ca. 3 weeks
From the text: (§4) Seeds of mono- and dicotyledonous weed plants and crop plants were sown, in plastic or organic planting pots, in sandy loam, covered with soil and grown in a greenhouse under controlled growth conditions. 2 to 3 weeks after sowing, the test plants were sprayed in the single-leaf stage. The compounds according to the invention, formulated in form of wettable powders (WP) or as emulsifiable concentrates (EC), were sprayed onto the green plant parts as aqueous suspension or emulsion, with the addition of 0.5% of an additive, at an application rate of 600 1 of water/ha (converted). The test plants were placed in the greenhouse for ca. 3 weeks under optimum growth conditions, and then the effect of the preparations was assessed visually in comparison with untreated controls (herbicidal effect in percent (%): 100% effect=plants have died off, 0% effect=as control plants).
(§5) Tables B1 to B16 below show the effects of selected compounds of the general formula (I) according to table 1 on various harmful plants and an application rate corresponding to 1280 g/ha or 320 g/ha obtained by the experimental procedure mentioned above.

[4] = tested on: Lolium multiflorum (LOLMU); experiment: Herbicidal post-emergence action; settings: 1280 g/ha, assessed after ca. 3 weeks
From the text: as §4, §5

[5] = tested on: Alopecurus myosuroides (ALOMY); experiment: Herbicidal post-emergence action; settings: 1280 g/ha, assessed after ca. 3 weeks
From the text: as §4, §5

Avena fatua (AVEFA) [6] = experiment: Herbicidal post-emergence action; settings: 1280 g/ha, assessed after ca. 3 weeks
From the text: as §4, §5

[7] = tested on: Lolium multiflorum (LOLMU); experiment: Herbicidal pre-emergence action; settings: 1280 g/ha, graded after ca. 3 weeks
From the text: as §1, §2, §3

Structure (SMILES) | Pre-emergence activity against ALOMY [1] | Pre-emergence activity against AVEFA (Avena fatua (AVEFA) [2]; 1280 g/ha) | Post-emergence activity against ECHCG [3] | Post-emergence activity against AVEFA (Avena fatua (AVEFA) [6]) | also measured
O=C(CC1CCC(=O)N1Cc1cccc(F)c1F)NC(Cc1c[nH]c2ccccc12)C(=O)O (mixture of isomers) [Example I-068] | 80% | 80% | – | – | –
O=C(CC1CCC(=O)N1Cc1cccc(F)c1F)NS(=O)(=O)C(F)(F)F (racemic) [Example I-052] | – | 90% | 80% | – | Post-emergence activity against LOLMU [4]: 80%
COC(=O)CN(C)C(=O)CC1CCC(=O)N1Cc1cccc(F)c1F (racemic) [Example I-053] | 90% | 90% | 80% | 80% | Post-emergence activity against ALOMY [5]: 80%
CN(C)NC(=O)CC1CCC(=O)N1Cc1cccc(F)c1F (racemic) [Example I-058] | 90% | 100% | 80% | 80% | Pre-emergence activity against LOLMU [7]: 80%; Post-emergence activity against ALOMY [5]: 80%
C=CCNC(=O)CC1CCC(=O)N1Cc1cccc(F)c1F (racemic) [Example I-059] | 80% | 80% | 80% | 80% | –
O=C(CC1CCC(=O)N1Cc1cccc(F)c1F)NCCc1ccccc1 (racemic) [Example I-061] | 80% | 90% | 80% | 90% | Post-emergence activity against ALOMY [5]: 90%
CS(=O)(=O)NC(=O)CC1CCC(=O)N1Cc1cccc(Cl)c1F (racemic) [Example I-070] | – | – | 80% | 80% | –
CCS(=O)(=O)NC(=O)CC1CCC(=O)N1Cc1cccc(F)c1F (racemic) [Example I-072] | – | 80% | 80% | 80% | –
O=C(CC1CCC(=O)N1Cc1cccc(F)c1F)NS(=O)(=O)C(F)F (racemic) [Example I-074] | – | – | 80% | – | –
CC(C)S(=O)(=O)NC(=O)CC1CCC(=O)N1Cc1cccc(F)c1F (racemic) [Example I-076] | – | 80% | – | 80% | –
O=C(CC1CCC(=O)N1Cc1cccc(F)c1F)NCc1cccc2ncccc12 (racemic) [Example I-079] | – | – | – | 90% | –
COC(=O)CCNC(=O)CC1CCC(=O)N1Cc1cccc(F)c1F (racemic) [Example I-084] | 80% | – | – | – | –
CCn1ccc(CNC(=O)CC2CCC(=O)N2Cc2cccc(F)c2F)n1 (racemic) [Example I-085] | – | – | – | 90% | –
O=C(CC1CCC(=O)N1Cc1cccc(F)c1F)NS(=O)(=O)C1CC1 (racemic) [Example I-086] | – | – | 80% | – | –
COCCNC(=O)CC1CCC(=O)N1Cc1cccc(F)c1F (racemic) [Example I-091] | 90% | – | – | – | –
C#CCNC(=O)CC1CCC(=O)N1Cc1cccc(F)c1F (racemic) [Example I-092] | – | 80% | – | – | –
CCNC(=O)CC1CCC(=O)N1Cc1cccc(F)c1F (racemic) [Example I-098] | – | – | – | 80% | –
CN(C(=O)CC1CCC(=O)N1Cc1cccc(F)c1F)c1ccccc1 (racemic) [Example I-100] | 90% | – | – | – | –
COC(=O)[C@H](Cc1c[nH]cn1)NC(=O)CC1CCC(=O)N1Cc1cccc(F)c1F (single isomer, unassigned) [Example I-050] | – | – | 80% | – | –
O=C(O)CC1CCC(=O)N1Cc1c(F)ccc(F)c1F (stereo not shown) [Example I-191, [5-Oxo-1-(2,3,6-trifluorobenzyl)pyrrolidin-2-yl]acetic acid] | – | – | – | – | Pre-emergence activity against AVEFA (Avena fatua (AVEFA) [2]; 320 g/ha): 100%
